Data taken from PubChem BioAssay (NCI).
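Step 1: Grow cells in 96-well plates. Step 2: Expose to compound for 48 hours at 5 concentrations. Step 3: Interpolate endpoints linearly; if unreached, use highest concentration. At the TGI there is no net growth.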

Key:
Assay in all cases: DTP human tumour cell line panel, 48 h
HCT-116 colon = tested on: HCT-116 colon
M19-MEL melanoma = tested on: M19-MEL melanoma
SF-268 CNS = tested on: SF-268 CNS
NCI-H226 lung = tested on: NCI-H226 lung
SK-OV-3 ovarian = tested on: SK-OV-3 ovarian
SNB-78 CNS = tested on: SNB-78 CNS
KM12 colon = tested on: KM12 colon
SR leukemia = tested on: SR leukemia
LXFL 529 NSCLC = tested on: LXFL 529 NSCLC
HL-60(TB) leukemia = tested on: HL-60(TB) leukemia
RPMI-8226 leukemia = tested on: RPMI-8226 leukemia
A549 NSCLC = tested on: A549 NSCLC
SK-MEL-2 melanoma = tested on: SK-MEL-2 melanoma
UACC-62 melanoma = tested on: UACC-62 melanoma
OVCAR-3 ovarian = tested on: OVCAR-3 ovarian
NCI-H522 lung = tested on: NCI-H522 lung
A498 renal = tested on: A498 renal
CAKI-1 renal = tested on: CAKI-1 renal
EKVX NSCLC = tested on: EKVX NSCLC
MOLT-4 leukemia = tested on: MOLT-4 leukemia
SK-MEL-5 melanoma = tested on: SK-MEL-5 melanoma
DMS 114 small cell lung = tested on: DMS 114 small cell lung
MALME-3M melanoma = tested on: MALME-3M melanoma
COLO 205 colon = tested on: COLO 205 colon
XF 498 CNS = tested on: XF 498 CNS
UO-31 renal = tested on: UO-31 renal
HT29 colon = tested on: HT29 colon
DLD-1 colon = tested on: DLD-1 colon
SN12C renal = tested on: SN12C renal
K-562 leukemia = tested on: K-562 leukemia
CCRF-CEM leukemia = tested on: CCRF-CEM leukemia
UACC-257 melanoma = tested on: UACC-257 melanoma
SK-MEL-28 melanoma = tested on: SK-MEL-28 melanoma
786-0 renal = tested on: 786-0 renal
HCC-2998 colon = tested on: HCC-2998 colon
M14 melanoma = tested on: M14 melanoma
HOP-92 NSCLC = tested on: HOP-92 NSCLC
SF-295 CNS = tested on: SF-295 CNS
OVCAR-4 ovarian = tested on: OVCAR-4 ovarian
SF-539 CNS = tested on: SF-539 CNS
NCI-H23 lung = tested on: NCI-H23 lung
OVCAR-8 ovarian = tested on: OVCAR-8 ovarian
HOP-62 NSCLC = tested on: HOP-62 NSCLC
SNB-19 CNS = tested on: SNB-19 CNS
SW-620 colon = tested on: SW-620 colon
RXF-631 renal = tested on: RXF-631 renal
TK-10 renal = tested on: TK-10 renal
DMS 273 small cell lung = tested on: DMS 273 small cell lung
SNB-75 CNS = tested on: SNB-75 CNS
ACHN renal = tested on: ACHN renal
KM20L2 colon = tested on: KM20L2 colon
U251 CNS = tested on: U251 CNS
RXF 393 renal = tested on: RXF 393 renal
OVCAR-5 ovarian = tested on: OVCAR-5 ovarian
NCI-H460 lung = tested on: NCI-H460 lung
IGROV1 ovarian = tested on: IGROV1 ovarian
HCT-15 colon = tested on: HCT-15 colon
HOP-18 NSCLC = tested on: HOP-18 NSCLC
LOX IMVI melanoma = tested on: LOX IMVI melanoma

CCN(CC)CCCCC1CCN(CC(=O)N2c3ccccc3NC(=O)c3ccccc32)CC1
TGI (HCT-116 colon): > 100 µM | TGI (M19-MEL melanoma): > 100 µM | TGI (SF-268 CNS): > 100 µM | TGI (NCI-H226 lung): > 100 µM | TGI (SK-OV-3 ovarian): > 100 µM | TGI (SNB-78 CNS): > 100 µM | TGI (KM12 colon): > 100 µM | TGI (SR leukemia): > 100 µM | TGI (LXFL 529 NSCLC): > 100 µM | TGI (HL-60(TB) leukemia): > 100 µM | TGI (RPMI-8226 leukemia): > 100 µM | TGI (A549 NSCLC): > 100 µM | TGI (SK-MEL-2 melanoma): > 100 µM | TGI (UACC-62 melanoma): > 100 µM | TGI (OVCAR-3 ovarian): > 100 µM | TGI (NCI-H522 lung): > 100 µM | TGI (A498 renal): > 100 µM | TGI (CAKI-1 renal): > 100 µM | TGI (EKVX NSCLC): > 100 µM | TGI (MOLT-4 leukemia): > 100 µM | TGI (SK-MEL-5 melanoma): > 100 µM | TGI (DMS 114 small cell lung): > 100 µM | TGI (MALME-3M melanoma): > 100 µM | TGI (COLO 205 colon): > 100 µM | TGI (XF 498 CNS): > 100 µM | TGI (UO-31 renal): > 100 µM | TGI (HT29 colon): > 100 µM | TGI (DLD-1 colon): > 100 µM | TGI (SN12C renal): > 100 µM | TGI (K-562 leukemia): > 100 µM | TGI (CCRF-CEM leukemia): > 100 µM | TGI (UACC-257 melanoma): > 100 µM | TGI (SK-MEL-28 melanoma): > 100 µM | TGI (786-0 renal): > 100 µM | TGI (HCC-2998 colon): > 100 µM | TGI (M14 melanoma): 39.7 µM | TGI (HOP-92 NSCLC): > 100 µM | TGI (SF-295 CNS): > 100 µM | TGI (OVCAR-4 ovarian): > 100 µM | TGI (SF-539 CNS): > 100 µM | TGI (NCI-H23 lung): > 100 µM | TGI (OVCAR-8 ovarian): > 100 µM | TGI (HOP-62 NSCLC): > 100 µM | TGI (SNB-19 CNS): > 100 µM | TGI (SW-620 colon): > 100 µM | TGI (RXF-631 renal): > 100 µM | TGI (TK-10 renal): > 100 µM | TGI (DMS 273 small cell lung): > 100 µM | TGI (SNB-75 CNS): > 100 µM

COc1ccc2[nH]c3c(cnn4cnnc34)c2c1
TGI (ACHN renal): > 100 µM | TGI (M19-MEL melanoma): > 100 µM | TGI (SF-268 CNS): > 100 µM | TGI (SK-OV-3 ovarian): > 100 µM | TGI (KM12 colon): > 100 µM | TGI (LXFL 529 NSCLC): > 100 µM | TGI (HL-60(TB) leukemia): > 100 µM | TGI (RPMI-8226 leukemia): > 100 µM | TGI (A549 NSCLC): > 100 µM | TGI (SK-MEL-2 melanoma): > 100 µM | TGI (UACC-62 melanoma): > 100 µM | TGI (OVCAR-3 ovarian): > 100 µM | TGI (NCI-H522 lung): > 100 µM | TGI (CAKI-1 renal): > 100 µM | TGI (EKVX NSCLC): > 100 µM | TGI (MOLT-4 leukemia): > 100 µM | TGI (KM20L2 colon): > 100 µM | TGI (SK-MEL-5 melanoma): > 100 µM | TGI (DMS 114 small cell lung): > 100 µM | TGI (MALME-3M melanoma): > 100 µM | TGI (COLO 205 colon): > 100 µM | TGI (UO-31 renal): > 100 µM | TGI (HT29 colon): > 100 µM | TGI (DLD-1 colon): > 100 µM | TGI (SN12C renal): > 100 µM | TGI (U251 CNS): > 100 µM | TGI (RXF 393 renal): > 100 µM | TGI (K-562 leukemia): > 100 µM | TGI (CCRF-CEM leukemia): > 100 µM | TGI (UACC-257 melanoma): > 100 µM | TGI (SK-MEL-28 melanoma): > 100 µM | TGI (786-0 renal): > 100 µM | TGI (HCC-2998 colon): > 100 µM | TGI (M14 melanoma): > 100 µM | TGI (OVCAR-5 ovarian): > 100 µM | TGI (NCI-H460 lung): > 100 µM | TGI (IGROV1 ovarian): > 100 µM | TGI (HOP-92 NSCLC): > 100 µM | TGI (SF-295 CNS): > 100 µM | TGI (OVCAR-4 ovarian): > 100 µM | TGI (HCT-15 colon): > 100 µM | TGI (SF-539 CNS): > 100 µM | TGI (NCI-H23 lung): > 100 µM | TGI (OVCAR-8 ovarian): > 100 µM | TGI (HOP-18 NSCLC): > 100 µM | TGI (HOP-62 NSCLC): > 100 µM | TGI (SNB-19 CNS): > 100 µM | TGI (SW-620 colon): > 100 µM | TGI (RXF-631 renal): > 100 µM | TGI (TK-10 renal): > 100 µM | TGI (DMS 273 small cell lung): > 100 µM | TGI (LOX IMVI melanoma): > 100 µM | TGI (SNB-75 CNS): > 100 µM
